This passage reports TGI results from PubChem BioAssay (NCI).

Test systems include HCC-2998 colon; HT29 colon; K-562 leukemia; MDA-MB-435; MDA-N; NCI-H23 lung; NCI/ADR-RES ovarian; OVCAR-4 ovarian; RPMI-8226 leukemia; SK-MEL-28 melanoma.
Assay in all cases: NCI anticancer screen, dose series, 48 h

SMILES strings stand for the structures.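 These data come from cells grown in 96-well plates and exposed to compound for 48 hours at five concentrations. At the TGI there is no net growth.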

Regarding `CC(=O)C(=[N+]=[N-])C(=O)OC(C)(C)C#N`, the TGI in the assay with HCC-2998 colon, with HT29 colon, with K-562 leukemia, in the assay with MDA-MB-435, in the assay on MDA-N and in the assay with NCI-H23 lung was more than 10 µM throughout. Further, the TGI in the assay with NCI/ADR-RES ovarian, in the assay on OVCAR-4 ovarian, in the assay with RPMI-8226 leukemia and in the assay with SK-MEL-28 melanoma was more than 10 µM in each case.

`CC1CC[C@@]2(OC1)OC1C[C@H]3[C@@H]4C/C(=N\N(C)C)[C@@]5(O)CC(O)CC[C@]5(C)[C@H]4CC[C@]3(C)C1[C@@H]2C` (stereo not given in full): the TGI was more than 100 µM in the assay with HCC-2998 colon; 49.2 µM in the assay on HT29 colon; more than 100 µM in the assay with K-562 leukemia; more than 100 µM with MDA-MB-435; 52.6 µM with MDA-N; more than 100 µM in the assay with NCI-H23 lung. Besides, the TGI with NCI/ADR-RES ovarian, in the assay with OVCAR-4 ovarian, with RPMI-8226 leukemia and with SK-MEL-28 melanoma was more than 100 µM each time.

For the compound `CCCCCCOc1ccc(C(=O)NOCc2ccccc2)cc1`, the TGI in the assay on HCC-2998 colon, in the assay on HT29 colon, in the assay with K-562 leukemia, in the assay with MDA-MB-435, in the assay with MDA-N and with NCI-H23 lung was more than 100 µM throughout. The TGI with NCI/ADR-RES ovarian, with OVCAR-4 ovarian, in the assay on RPMI-8226 leukemia and with SK-MEL-28 melanoma was more than 100 µM each time.

On to `Cn1c(=O)cc(NCc2ccc(Cl)cc2)[nH]c1=O`, for which the TGI in the assay with HCC-2998 colon, in the assay on HT29 colon, in the assay with K-562 leukemia, in the assay with MDA-MB-435, in the assay on MDA-N and in the assay on NCI-H23 lung was more than 100 µM each time. The TGI with NCI/ADR-RES ovarian, with OVCAR-4 ovarian, in the assay with RPMI-8226 leukemia and in the assay on SK-MEL-28 melanoma was more than 100 µM throughout.

`O=C(NNC(=S)Nc1ccccc1)c1ccccc1Nc1ccccc1C(=O)NNC(=S)Nc1ccccc1`: the TGI in the assay with HCC-2998 colon is 37.1 µM; with HT29 colon, 76.6 µM; with K-562 leukemia, more than 100 µM; in the assay with MDA-MB-435, more than 100 µM; in the assay on MDA-N, more than 100 µM; in the assay with NCI-H23 lung, 41.5 µM. Also, the TGI in the assay with NCI/ADR-RES ovarian, with OVCAR-4 ovarian, in the assay with RPMI-8226 leukemia and in the assay on SK-MEL-28 melanoma was more than 100 µM in each case.

`Cc1c(CCOC=O)c(=O)[nH]c2nncn12`: the TGI with HCC-2998 colon, in the assay on HT29 colon, in the assay on K-562 leukemia, with MDA-MB-435, in the assay with MDA-N and in the assay on NCI-H23 lung was more than 100 µM each time. Further, the TGI with NCI/ADR-RES ovarian, in the assay on OVCAR-4 ovarian, with RPMI-8226 leukemia and in the assay on SK-MEL-28 melanoma was more than 100 µM each time.

Turning to `CC(N)C(C)Cc1ccccc1` (stereo not given), the TGI with HCC-2998 colon, with HT29 colon, in the assay on K-562 leukemia, in the assay with MDA-MB-435, in the assay with MDA-N and in the assay on NCI-H23 lung was more than 100 µM throughout. Also, the TGI with NCI/ADR-RES ovarian, with OVCAR-4 ovarian, in the assay with RPMI-8226 leukemia and in the assay with SK-MEL-28 melanoma was more than 100 µM in each case.

`CCc1n[nH]c(=O)n1/N=C/c1ccccc1Cl`: the TGI with HCC-2998 colon, in the assay on HT29 colon, in the assay with K-562 leukemia, in the assay with MDA-MB-435, in the assay on MDA-N and in the assay on NCI-H23 lung was more than 100 µM each time. The TGI in the assay on NCI/ADR-RES ovarian, in the assay on OVCAR-4 ovarian, in the assay with RPMI-8226 leukemia and in the assay on SK-MEL-28 melanoma was more than 100 µM throughout.

Take `O=C1/C(=C\c2cccc(Oc3ccccc3)c2)S(=O)(=O)C(c2ccccc2)N1c1ccc(Cl)cc1` (stereo not given): the TGI was more than 100 µM in the assay with HCC-2998 colon; 28.2 µM in the assay with HT29 colon; 56.9 µM in the assay on K-562 leukemia; 25.4 µM in the assay on MDA-MB-435; 29 µM with MDA-N; more than 100 µM in the assay on NCI-H23 lung. The TGI in the assay on NCI/ADR-RES ovarian is 54.1 µM; in the assay with OVCAR-4 ovarian, 52.3 µM; with RPMI-8226 leukemia it was more than 100 µM; in the assay with SK-MEL-28 melanoma, 34 µM.

Regarding `Cc1cn(C2CCC(/C=N\O)O2)c(=O)[nH]c1=O` (stereo not given), the TGI in the assay on HCC-2998 colon, with HT29 colon, with K-562 leukemia, with MDA-MB-435, in the assay with MDA-N and with NCI-H23 lung was more than 100 µM each time. Also, the TGI with NCI/ADR-RES ovarian, in the assay on OVCAR-4 ovarian, with RPMI-8226 leukemia and in the assay with SK-MEL-28 melanoma was more than 100 µM each time.

`CC1OC(OC2C(O[C@H]3CC[C@@]4(C)[C@@H](CC[C@@H]5[C@@H]4CC[C@]4(C)[C@@H]6[C@H](C[C@@H]54)O[C@]4(CC[C@@H](C)CO4)[C@H]6C)C3)OC(CO)C(OC3OC(CO)C(O)C(OC4OCC(O)C(O)C4O)C3OC3OCC(O)C(O)C3O)C2O)C(O)C(O)C1O` (stereo not given in full): the TGI in the assay on HCC-2998 colon was 3.01 µM; in the assay on HT29 colon, 1.71 µM; in the assay with K-562 leukemia, more than 100 µM; with MDA-MB-435, 2.74 µM; in the assay on MDA-N it was 36.3 µM; in the assay on NCI-H23 lung it was 2.93 µM. In addition, the TGI with NCI/ADR-RES ovarian was 3.13 µM; with OVCAR-4 ovarian, 2.89 µM; in the assay with RPMI-8226 leukemia, 11.4 µM; with SK-MEL-28 melanoma it was 2.04 µM.

In the case of `CC(C)(C)N(Cc1ccc2c(c1)OCO2)C(=O)/C=C\S(=O)c1ccccc1` (stereo not given), the TGI was 13.8 µM with HCC-2998 colon; 12.9 µM with HT29 colon; more than 100 µM in the assay on K-562 leukemia; 9.74 µM with MDA-MB-435; 12.7 µM in the assay on MDA-N; 8.79 µM in the assay on NCI-H23 lung. Besides, the TGI in the assay on NCI/ADR-RES ovarian amounted to 10.2 µM; in the assay on OVCAR-4 ovarian, 10.7 µM; in the assay on RPMI-8226 leukemia, 9.54 µM; in the assay with SK-MEL-28 melanoma, 22.8 µM.

Consider `CON(C)C(C#N)=C(C#N)C#N`, for which the TGI in the assay with HCC-2998 colon, in the assay with HT29 colon, in the assay with K-562 leukemia, with MDA-MB-435, with MDA-N and with NCI-H23 lung was more than 10 µM each time. Moreover, the TGI with NCI/ADR-RES ovarian, in the assay with OVCAR-4 ovarian, in the assay on RPMI-8226 leukemia and with SK-MEL-28 melanoma was more than 10 µM throughout.

With `CC1(c2nc3cc(Cl)c(Cl)cc3[nH]2)CCC(CO)C(C)(C)O1` (stereo not given), the TGI was more than 100 µM in the assay on HCC-2998 colon; 34.2 µM in the assay on HT29 colon; more than 100 µM in the assay with K-562 leukemia; more than 100 µM with MDA-MB-435; more than 100 µM in the assay on MDA-N; 76.4 µM with NCI-H23 lung. In addition, the TGI in the assay with NCI/ADR-RES ovarian was 44.5 µM; in the assay on OVCAR-4 ovarian, more than 100 µM; in the assay with RPMI-8226 leukemia it was more than 100 µM; in the assay with SK-MEL-28 melanoma, 92 µM.

As to `COc1cc(-c2oc3c(OC)c(O)c(OC)c(O)c3c(=O)c2OC)cc(O)c1OC`, the TGI was more than 100 µM in the assay with HCC-2998 colon; more than 100 µM with HT29 colon; more than 100 µM in the assay on K-562 leukemia; 77.6 µM in the assay with MDA-MB-435; 36.2 µM with MDA-N; 76.8 µM in the assay on NCI-H23 lung. For the same compound, the TGI was 52.7 µM in the assay with NCI/ADR-RES ovarian, more than 100 µM with OVCAR-4 ovarian, more than 100 µM with RPMI-8226 leukemia and more than 100 µM in the assay with SK-MEL-28 melanoma.

On to `O=[N+]([O-])c1ccc(C2=NOC(c3ccccc3F)N2C23CC4CC(CC(C4)C2)C3)cc1` (stereo not given), for which the TGI in the assay with HCC-2998 colon, in the assay on HT29 colon, with K-562 leukemia, in the assay on MDA-MB-435, with MDA-N and with NCI-H23 lung was more than 100 µM in each case. The TGI in the assay on NCI/ADR-RES ovarian, with OVCAR-4 ovarian, with RPMI-8226 leukemia and with SK-MEL-28 melanoma was more than 100 µM in each case.

`S=C(N/N=C(/c1ccccc1)c1ccccn1)Nc1ccccc1Cl`: the TGI is 8.11 µM in the assay with HCC-2998 colon; 13.4 µM with HT29 colon; more than 5.82 µM with K-562 leukemia; 8.77 µM with MDA-MB-435; 13.6 µM in the assay on MDA-N; 16.7 µM in the assay on NCI-H23 lung. Also, the TGI in the assay with NCI/ADR-RES ovarian is 5.18 µM; in the assay with OVCAR-4 ovarian, 18.2 µM; with RPMI-8226 leukemia, more than 7.31 µM; in the assay on SK-MEL-28 melanoma, 19.1 µM.

In the case of `CCCCn1c(C)c(C(=O)OCC)s/c1=N/Nc1nc2ccccc2nc1-c1ccccc1`, the TGI in the assay on HCC-2998 colon, in the assay on HT29 colon, with K-562 leukemia, in the assay on MDA-MB-435, in the assay on MDA-N and in the assay with NCI-H23 lung was more than 100 µM throughout. Besides, the TGI with NCI/ADR-RES ovarian, with OVCAR-4 ovarian, in the assay with RPMI-8226 leukemia and in the assay with SK-MEL-28 melanoma was more than 100 µM in each case.

With `CSc1nc(-c2cc3c(c(SC)n2)CCCCC3)cc2c1CCCCC2`, the TGI in the assay with HCC-2998 colon, in the assay with HT29 colon, in the assay with K-562 leukemia, in the assay on MDA-MB-435, with MDA-N and with NCI-H23 lung was more than 100 µM each time. The TGI in the assay with NCI/ADR-RES ovarian, with OVCAR-4 ovarian, in the assay with RPMI-8226 leukemia and with SK-MEL-28 melanoma was more than 100 µM throughout.

Turning to `CC1(C)N=C(C(N)=O)c2ncn(-c3ccccc3)c2N1`, the TGI with HCC-2998 colon, in the assay on HT29 colon, with K-562 leukemia, with MDA-MB-435, with MDA-N and in the assay with NCI-H23 lung was more than 100 µM in each case. Besides, the TGI in the assay on NCI/ADR-RES ovarian, in the assay on OVCAR-4 ovarian, with RPMI-8226 leukemia and in the assay with SK-MEL-28 melanoma was more than 100 µM each time.

In the case of `N#Cc1c(-c2ccc([N+](=O)[O-])cc2)cc(-c2ccc(Nc3ccnc4cc(C(F)(F)F)ccc34)cc2)nc1N`, the TGI in the assay with HCC-2998 colon is more than 55.4 µM; in the assay on HT29 colon, 34.2 µM; with K-562 leukemia, 19.1 µM; in the assay with MDA-MB-435, 33.3 µM; in the assay on MDA-N it was 38.3 µM; in the assay with NCI-H23 lung, more than 62.3 µM. Moreover, the TGI with NCI/ADR-RES ovarian is 35.3 µM; with OVCAR-4 ovarian it was 28.1 µM; with RPMI-8226 leukemia, more than 54.5 µM; with SK-MEL-28 melanoma, 59.8 µM.
